Experimental data published in ChEMBL document CHEMBL4831477, “Structure-Enabled Discovery of Novel Macrocyclic Inhibitors Targeting Glutaminase 1 Allosteric Binding Site” (J Med Chem, 2021).
Converted amounts (≈) assume the structure as drawn. The source made the active and inactive calls. No cut-off for these calls is given here.

Tests used:
[1] = Acute toxicity in BALB/c nude mouse assessed as heart damage at 200 mg/kg, po administered twice daily for 4 weeks by H and E staining based optical microscopic analysis; assay type: organism-based; details: in vivo, 672 h
[2] = Metabolic stability in mouse liver microsomes assessed as clearance at 10 uM preincubated for 5 mins followed by NADPH addition by LC-MS/MS analysis; assay type: ADME, Microsome; details: read-out: CLH
HCT-116 [3] = experiment: Induction of ROS generation in human HCT-116 cells at 500 nM preincubated for 1 hr with NAC followed by compound addition by measured after 3 hrs DCFH-DA dye based flow cytometric analysis; assay type: functional, cell-based
[4] = Distribution coefficient, logD of the compound at pH 7.4 by LC-MS based shake-flask method; assay type: physicochemical; details: octanol/water, read-out: logD
[5] = Half life in Sprague-Dawley rat at 200 mg/kg, po measured upto 72 hrs by LC-MS/MS analysis; assay type: ADME, organism-based; details: in vivo
[6] = Apparent volume of distribution in Sprague-Dawley rat at 200 mg/kg, po measured upto 72 hrs by LC-MS/MS analysis; assay type: ADME, organism-based; details: in vivo
[7] = Cmax in BALB/c nude mouse plasma xenografted with human HCT-116 cells at 200 mg/kg, po administered twice daily for 28 days; assay type: ADME, organism-based; set-up: route oral, time 28 day, dose 200 mg/kg
HCT-116 [8] = experiment: Antitumor activity against human HCT-116 cells xenografted in BALB/c nude mouse assessed as tumor destruction at 200 mg/kg, po administered twice daily measured after 28 days by H and E staining based optical microscopic method; assay type: functional, organism-based; details: time 28.0 day
[9] = fCmax in BALB/c nude mouse plasma xenografted with human HCT-116 cells at 200 mg/kg, po administered twice daily for 28 days; assay type: ADME, organism-based; details: in vivo, 672 h, time 28 day
[10] = Intrinsic aqueous solubility of compound at pH 7.4 by LC-MS based shake-flask method; assay type: physicochemical; details: read-out: Intrinsic_solubility
[11] = molecular target: T1, Glutaminase kidney isoform, mitochondrial (Mus musculus) (UniProt D3Z7P3); experiment: In vivo inhibition of GLS1 in BALB/c mouse xenografted with human HCT-116 cells assessed as reduction in alpha-ketoglutarate level at 200 mg/kg, po; assay type: functional, organism-based
T1 sequence (whole entry): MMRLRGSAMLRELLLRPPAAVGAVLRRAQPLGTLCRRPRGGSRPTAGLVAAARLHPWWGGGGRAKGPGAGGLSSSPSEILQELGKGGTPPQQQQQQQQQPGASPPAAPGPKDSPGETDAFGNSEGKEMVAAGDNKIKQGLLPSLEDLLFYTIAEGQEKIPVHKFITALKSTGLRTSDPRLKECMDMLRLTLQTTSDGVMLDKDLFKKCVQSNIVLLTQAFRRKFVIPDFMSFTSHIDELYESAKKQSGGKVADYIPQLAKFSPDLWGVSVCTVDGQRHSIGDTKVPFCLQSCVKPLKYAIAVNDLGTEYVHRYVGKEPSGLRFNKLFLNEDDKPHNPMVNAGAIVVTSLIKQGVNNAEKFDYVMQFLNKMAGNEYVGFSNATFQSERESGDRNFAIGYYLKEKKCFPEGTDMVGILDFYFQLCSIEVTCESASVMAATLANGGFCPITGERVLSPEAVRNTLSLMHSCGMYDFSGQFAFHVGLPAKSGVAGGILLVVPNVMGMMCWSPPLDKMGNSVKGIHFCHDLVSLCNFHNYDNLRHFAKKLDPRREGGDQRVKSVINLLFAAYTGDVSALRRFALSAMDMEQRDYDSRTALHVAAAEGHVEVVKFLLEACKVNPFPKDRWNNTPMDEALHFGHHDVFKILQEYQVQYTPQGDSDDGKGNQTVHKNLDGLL

[12] = Metabolic stability in human liver microsomes assessed as clearance at 10 uM preincubated for 5 mins followed by NADPH addition by LC-MS/MS analysis; assay type: ADME, Microsome; details: read-out: CLH
[13] = Toxicity in BALB/c nude mouse xenografted with human HCT-116 cells assessed as body weight loss at 200 mg/kg, po administered twice daily for 28 days and measured every 3 days; assay type: organism-based; details: in vivo, 672 h, time 28 day
HCT-116 [14] = experiment: Antineoplastic activity against human HCT-116 cells xenografted in po dosed BALB/c nude mouse administered twice daily measured after 28 days; assay type: functional, organism-based; details: dose 200.0 mg/kg, time 28.0 day
[15] = Cmax in Sprague-Dawley rat at 200 mg/kg, po measured upto 72 hrs by LC-MS/MS analysis; assay type: ADME, organism-based; set-up: route oral, dose 200 mg/kg, time <=72; details: in vivo
[16] = AUC(0 to t) in Sprague-Dawley rat at 5 mg/kg, iv measured upto 72 hrs by LC-MS/MS analysis; assay type: ADME, organism-based; set-up: route intravenous, dose 5 mg/kg, time <=72; details: in vivo
[17] = Oral bioavailability in Sprague-Dawley rat at 200 mg/kg measured upto 72 hrs by LC-MS/MS analysis; assay type: ADME, organism-based; details: in vivo
[18] = AUC(0 to infinity) in Sprague-Dawley rat at 200 mg/kg, po measured upto 72 hrs by LC-MS/MS analysis; assay type: ADME, organism-based; set-up: route oral, dose 200 mg/kg, time <=72; details: in vivo, 72 h
[19] = molecular target: T1, Glutaminase kidney isoform, mitochondrial (Mus musculus); experiment: In vivo inhibition of GLS1 in BALB/c mouse xenografted with human HCT-116 cells assessed as reduction in fumarate level at 200 mg/kg, po; assay type: functional, organism-based
[20] = Acute toxicity in BALB/c nude mouse assessed as spleen damage at 200 mg/kg, po administered twice daily for 4 weeks by H and E staining based optical microscopic analysis; assay type: organism-based; details: in vivo, 672 h
[21] = Metabolic stability in mouse plasma assessed as compound remaining after 2 hrs by LC-MS/MS analysis; assay type: ADME, cell-free; details: read-out: Stability
[22] = Toxicity in BALB/c nude mouse xenografted with human HCT-116 cells assessed as tolerability at 200 mg/kg, po administered twice daily measured after 28 days; assay type: organism-based; details: in vivo, 672 h, time 28 day
HCT-116 [23] = experiment: Induction of ROS generation in human HCT-116 cells incubated for 6 hrs by DCFH-DA dye based flow cytometric analysis; assay type: functional, cell-based; details: dose 50-500 nM
[24] = molecular target: T1, Glutaminase kidney isoform, mitochondrial (Mus musculus); experiment: In vivo inhibition of GLS1 in BALB/c mouse xenografted with human HCT-116 cells assessed as reduction in glutamate level at 200 mg/kg, po; assay type: functional, organism-based
[25] = AUC(0 to infinity) in Sprague-Dawley rat at 5 mg/kg, iv measured upto 72 hrs by LC-MS/MS analysis; assay type: ADME, organism-based; set-up: route intravenous, dose 5 mg/kg, time <=72; details: Sprague-Dawley, in vivo
[26] = Acute toxicity in BALB/c nude mouse assessed as liver damage at 200 mg/kg, po administered twice daily for 4 weeks by H and E staining based optical microscopic analysis; assay type: organism-based; details: in vivo, 672 h
HCT-116 [27] = experiment: Antitumor activity against human HCT-116 cells xenografted in BALB/c nude mouse assessed as tumor growth inhibition at 200 mg/kg, po administered twice daily measured after 28 days; assay type: functional; details: Mus musculus, HCT-116, po, 672 h, time 28 day, read-out: TGI
[28] = molecular target: T1, Glutaminase kidney isoform, mitochondrial (Mus musculus); experiment: In vivo inhibition of GLS1 in BALB/c mouse xenografted with human HCT-116 cells assessed as reduction in malate level at 200 mg/kg, po; assay type: functional, organism-based
HCT-116 [29] = experiment: Inhibition of clone formation in human HCT-116 cells at 0.1 to 2 microM incubated for 14 days by crystal violet staining based assay; assay type: functional, cell-based; details: dose 0.1-2 µM, time 14.0 day
Mus musculus = experiment: Induction of ROS generation in BALB/c mouse xenografted with human HCT-116 cells at 200 mg/kg, po; assay type: functional, organism-based

O=C1Cc2cccc(c2)OCC/C=C/CCOc2cccc(c2)CC(=O)Nc2nnc(s2)CCCCc2ccc(nn2)N1
Activity [1]: Non-Toxic | microsomal CLint at 10 µM [2]: 7.6 µL/min/mg | Activity (HCT-116 [3]): inactive | logD [4]: 3.13 | half-life [5]: 5.7 h | Vz [6]: 58.6 L/kg | Cmax [7]: 1630 nM | Activity (HCT-116 [8]): Active | fCmax [9]: 0.21 µM | solubility thermodynamic [10]: 1.73 µg/mL (≈ 2.89 µM) | inhibition [11]: Active | microsomal CLint at 10 µM [12]: 3.2 µL/min/mg | Activity [13]: Non-Toxic | Activity (HCT-116 [14]): Dose-Dependent Effect | Cmax [15]: 1030 ng/mL | AUC(0-t) at 72 h [16]: 1630 ng·h/mL | bioavailability [17]: 9% | AUC [18]: 6064 ng·h/mL | inhibition [19]: Active | Activity [20]: Non-Toxic | remaining at 2 h [21]: 89% | Activity [22]: Non-Toxic | Activity (HCT-116 [23]): Dose-Dependent Effect | inhibition [24]: Active | AUC(0-inf) [25]: 1670 ng·h/mL | Activity [26]: Non-Toxic | inhibition in vivo at 200 mg/kg (HCT-116 [27]): 39% | inhibition [28]: Active | inhibition (HCT-116 [29]): Active | Activity (Mus musculus): Active
